This is an account of results in ChEMBL document CHEMBL1201862, “PubChem BioAssay data set” (2004).

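Compound exposure: 48 hours, 5 concentrations, 96-well plates. At the GI50, growth is halved.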 The source made the active and inactive calls. No stated cut-off is given here; in the data, active = GI50 up to about 1.1 µM and inactive = higher.

Some test systems named below: BT-549; UACC-257; NCI/ADR-RES; LOX IMVI; MCF7; MOLT-4; A498; SR; T47D; MDA-N; MDA-MB-231; HOP-62; SNB-19; NCI-H226; COLO 205; Malme-3M; SK-MEL-28; SW-620; ACHN.
Holding throughout (experiment): NCI anticancer screen, dose series, 48 h

On to `COc1ccc(-c2cs/c(=N\c3ccccc3)n2CC(O)c2ccc([N+](=O)[O-])cc2)cc1` (stereo not given), for which the GI50 with BT-549 was > 100 µM (inactive); in the assay with UACC-257, > 76.9 µM (inactive); in the assay on NCI/ADR-RES it was > 74.5 µM (inactive); in the assay with LOX IMVI, > 100 µM (inactive); with MCF7, > 63.8 µM (inactive); in the assay on MOLT-4 it was 4.06 µM (inactive). The GI50 was > 100 µM (inactive) in the assay on A498; 4.25 µM (inactive) in the assay on SR; 5.42 µM (inactive) with T47D; > 100 µM (inactive) in the assay on MDA-N; > 100 µM (inactive) in the assay with MDA-MB-231; > 100 µM (inactive) in the assay with HOP-62. The GI50 with SNB-19, in the assay with NCI-H226, in the assay with COLO 205, in the assay on Malme-3M, in the assay on SK-MEL-28 and with SW-620 was > 100 µM (inactive) throughout. Moreover, the GI50 with ACHN was > 100 µM (inactive).

As to `O=C1c2cccnc2C(=O)C2C3C=CC(C3)C12` (stereo not given), the GI50 with BT-549 was 11.5 µM (inactive); with UACC-257, 13.5 µM (inactive); in the assay on NCI/ADR-RES it was 4.52 µM (inactive); with LOX IMVI it was 3.66 µM (inactive); in the assay on MCF7 it was 3.52 µM (inactive); with A498, 21.2 µM (inactive). Also, the GI50 in the assay on SR was 2.11 µM (inactive); with T47D, 3.01 µM (inactive); with MDA-N, 3.61 µM (inactive); with MDA-MB-231, 2.78 µM (inactive); in the assay on HOP-62, 6.68 µM (inactive); in the assay on SNB-19 it was 15 µM (inactive). For the same compound, the GI50 is 13 µM (inactive) in the assay on NCI-H226; 13.3 µM (inactive) in the assay on COLO 205; 15.1 µM (inactive) in the assay on Malme-3M; 15.2 µM (inactive) in the assay with SK-MEL-28; 4.41 µM (inactive) in the assay with SW-620; 7.53 µM (inactive) in the assay with ACHN.

`N=c1c2sc3nc4ccccc4n3c2ncn1Cc1ccccc1`: the GI50 in the assay with BT-549, in the assay on UACC-257, in the assay on NCI/ADR-RES, in the assay with LOX IMVI, in the assay on MCF7 and in the assay on MOLT-4 was > 100 µM (inactive) each time. The GI50 in the assay with A498, in the assay on SR, in the assay with T47D, in the assay on MDA-N, in the assay with MDA-MB-231 and with HOP-62 was > 100 µM (inactive) each time. Besides, the GI50 in the assay with SNB-19, in the assay with NCI-H226, in the assay on COLO 205, in the assay with Malme-3M, in the assay on SK-MEL-28 and with SW-620 was > 100 µM (inactive) each time. The GI50 in the assay with ACHN was > 100 µM (inactive).

As for `O=C(O)c1ccc(OCc2ccccc2)c(Cl)c1`, the GI50 in the assay on BT-549, in the assay with UACC-257, in the assay with NCI/ADR-RES, with LOX IMVI, in the assay with MCF7 and in the assay on MOLT-4 was > 100 µM (inactive) each time. The GI50 in the assay with A498, in the assay on SR, in the assay with T47D, in the assay on MDA-N, with MDA-MB-231 and in the assay with HOP-62 was > 100 µM (inactive) in each case. Moreover, the GI50 in the assay on SNB-19, with NCI-H226, in the assay on COLO 205, in the assay on Malme-3M, with SK-MEL-28 and in the assay with SW-620 was > 100 µM (inactive) in each case. In addition, the GI50 with ACHN was > 100 µM (inactive).

With `Cc1cc(C)n(-c2nc(-n3nc(C)cc3C)nc(-n3nc(C)cc3C)n2)n1`, the GI50 in the assay on BT-549, in the assay with UACC-257, in the assay with NCI/ADR-RES, in the assay with LOX IMVI, in the assay with MCF7 and in the assay on MOLT-4 was > 100 µM (inactive) throughout. In addition, the GI50 in the assay on A498, in the assay on SR, in the assay on T47D, in the assay with MDA-N, in the assay on MDA-MB-231 and in the assay with HOP-62 was > 100 µM (inactive) in each case. The GI50 was > 100 µM (inactive) in the assay on SNB-19; 35.8 µM (inactive) in the assay with NCI-H226; > 100 µM (inactive) with COLO 205; 37.2 µM (inactive) in the assay on Malme-3M; > 100 µM (inactive) in the assay on SK-MEL-28; > 100 µM (inactive) in the assay with SW-620. The GI50 with ACHN was 38.6 µM (inactive).

Regarding `C#CCn1c(=O)c(C)cn(/C(=C\C(=O)OCC)C(=O)OCC)c1=O`, the GI50 was 9.71 µM (inactive) in the assay with BT-549; 14.7 µM (inactive) in the assay on UACC-257; 3.86 µM (inactive) with NCI/ADR-RES; 11.1 µM (inactive) with LOX IMVI; 2.72 µM (inactive) in the assay with MCF7; 2.65 µM (inactive) in the assay with MOLT-4. The GI50 with A498 is 17.2 µM (inactive); in the assay on SR, 2.96 µM (inactive); in the assay with T47D it was 2.65 µM (inactive); in the assay on MDA-N, 7.5 µM (inactive); in the assay on MDA-MB-231, 10.1 µM (inactive); in the assay on HOP-62, 20.5 µM (inactive). Also, the GI50 with SNB-19 is 19.7 µM (inactive); in the assay with NCI-H226, 17.1 µM (inactive); with COLO 205, 1.17 µM (inactive); in the assay with Malme-3M it was 2.1 µM (inactive); with SK-MEL-28, 2.03 µM (inactive); in the assay with SW-620, 1.67 µM (inactive). Moreover, the GI50 in the assay on ACHN was 1.69 µM (inactive).

Take `CN(C)S(=O)(=O)c1ccc2c(c1)/C(=C1/Nc3ccccc3C1=O)C(=O)N2`: the GI50 in the assay on BT-549 was 15 µM (inactive); in the assay with UACC-257, > 100 µM (inactive); with NCI/ADR-RES it was 71.9 µM (inactive); in the assay with LOX IMVI, 41.6 µM (inactive); in the assay on MCF7 it was 24.8 µM (inactive); in the assay on MOLT-4, 14.1 µM (inactive). For the same compound, the GI50 in the assay on A498 is 29.8 µM (inactive); in the assay on SR, 14.7 µM (inactive); with T47D, 24.8 µM (inactive); in the assay with MDA-N, > 100 µM (inactive); in the assay on MDA-MB-231, 17 µM (inactive); in the assay with HOP-62, 15.7 µM (inactive). For the same compound, the GI50 in the assay on SNB-19 was 15.7 µM (inactive); in the assay with NCI-H226, 25.2 µM (inactive); with COLO 205 it was > 100 µM (inactive); in the assay on Malme-3M, > 100 µM (inactive); with SK-MEL-28, > 100 µM (inactive); with SW-620 it was > 100 µM (inactive). Moreover, the GI50 with ACHN was 12.1 µM (inactive).

With `Cn1cco/c1=N/c1ccc(Cl)c(Cl)c1`, the GI50 with BT-549, in the assay on UACC-257, in the assay on NCI/ADR-RES, in the assay with LOX IMVI, with MCF7 and in the assay on MOLT-4 was > 10 µM (inactive) throughout. Besides, the GI50 with A498, with SR, in the assay on T47D, with MDA-N, in the assay with MDA-MB-231 and in the assay with HOP-62 was > 10 µM (inactive) each time. Further, the GI50 in the assay on SNB-19, in the assay with NCI-H226, with COLO 205, in the assay with Malme-3M, in the assay with SK-MEL-28 and in the assay with SW-620 was > 10 µM (inactive) each time. The GI50 in the assay on ACHN was > 10 µM (inactive).

In the case of `Clc1ccc(NCc2nnc(COc3ccc(OCc4nnc(CNc5ccc(Cl)cc5)o4)c(Cl)c3)o2)cc1`, the GI50 in the assay with BT-549 was 22.3 µM (inactive); in the assay on UACC-257 it was 43.1 µM (inactive); in the assay on NCI/ADR-RES, 5.68 µM (inactive); with LOX IMVI, 20.3 µM (inactive); in the assay with MCF7 it was 17.5 µM (inactive); in the assay on A498, 28.4 µM (inactive). The GI50 in the assay on SR is 0.303 µM (active); in the assay on T47D, > 100 µM (inactive); in the assay with MDA-N it was 20.4 µM (inactive); with MDA-MB-231 it was 15.7 µM (inactive); in the assay on HOP-62, > 100 µM (inactive); in the assay with SNB-19 it was > 100 µM (inactive). Also, the GI50 in the assay with NCI-H226 was 23.3 µM (inactive); in the assay with COLO 205, 10.9 µM (inactive); with Malme-3M, 51.1 µM (inactive); in the assay with SK-MEL-28 it was 75.3 µM (inactive); in the assay with SW-620, 38.2 µM (inactive); in the assay on ACHN, 38.1 µM (inactive).

Consider `COC1=CC(=O)c2c(c(-c3csc(C)n3)cn2C)C1=O`, for which the GI50 in the assay on BT-549 is 22.8 µM (inactive); with UACC-257 it was 5.92 µM (inactive); in the assay with NCI/ADR-RES, 22 µM (inactive); in the assay on LOX IMVI it was 4.81 µM (inactive); in the assay with MCF7, 21.7 µM (inactive); in the assay with MOLT-4 it was 31.9 µM (inactive). Moreover, the GI50 in the assay with A498 was 22.5 µM (inactive); in the assay with SR, 23.3 µM (inactive); with T47D it was 26.5 µM (inactive); in the assay on MDA-N, 14.8 µM (inactive); with MDA-MB-231 it was 29.4 µM (inactive); in the assay on HOP-62 it was 30 µM (inactive). The GI50 in the assay on SNB-19 was 8.04 µM (inactive); in the assay on NCI-H226, 33.6 µM (inactive); with COLO 205, 19.8 µM (inactive); in the assay with SK-MEL-28 it was 44.5 µM (inactive); in the assay on SW-620, 35.9 µM (inactive); in the assay with ACHN, 25.8 µM (inactive).

On to `CCN(CC)C1=Nc2ccccc2-n2ccnc2C1`, for which the GI50 with BT-549, with UACC-257, in the assay with NCI/ADR-RES, in the assay on LOX IMVI, in the assay on MCF7 and in the assay with MOLT-4 was > 100 µM (inactive) in each case. For the same compound, the GI50 in the assay with A498, in the assay on SR, in the assay with T47D, in the assay with MDA-N, in the assay on MDA-MB-231 and in the assay with HOP-62 was > 100 µM (inactive) each time. Moreover, the GI50 in the assay on SNB-19, with NCI-H226, with COLO 205, in the assay with SK-MEL-28, in the assay on SW-620 and in the assay with ACHN was > 100 µM (inactive) in each case.
